Reference: PMC7472354, “Enhanced Antimicrobial Activity of N-Terminal Derivatives of a Novel Brevinin-1 Peptide from The Skin Secretion of Odorrana schmackeri” (Toxins, 2020)
In brackets after ≈: the same amount, converted by molar mass. Where two headings read alike, the source gives them in different places. Where a SMILES comes first, the peptide text is derived from it.

Legend:
[1] = test system: Candida albicans (NCPF 1467); format: cell-based; settings: for MBC: NCPF 1467, 18 h; for MIC: NCPF 1467, 24 h
Protocol: (§1) The minimal inhibitory concentrations (MICs) and minimum bactericidal concentrations (MBCs) were evaluated to determine the antimicrobial activity of synthetic peptides. The microorganisms employed in the study are two kinds of Gram-negative bacteria, Escherichia coli (NCTC 10418) and Pseudomonas aeruginosa (ATCC 27853), three kinds of Gram-positive bacteria, Staphylococcus aureus (NCTC 10788), Methicillin-resistant Staphylococcus aureus (MRSA, ATCC 12493) and Enterococcus faecalis (NCTC 12697) and a yeast, Candida albicans (NCPF 1467), as indicated previously. […] The sterilised broth medium was used as the positive control and the microorganism cultured in the medium only was treated as the negative control. […] The MBC results were defined as the lowest bactericidal concentrations of peptide. The antimicrobial activity of peptides was tested by monitoring the absorbance at 550 nm using an ELISA plate reader (Biolise BioTek EL808, Winooski, VT, USA).

[2] = test system: Staphylococcus aureus (NCTC 10788); format: cell-based; settings: for MBC: NCTC 10788, 18 h; for MIC: NCTC 10788, 24 h
Protocol: as §1

[3] = test system: Escherichia coli (NCTC 10418); format: cell-based; settings: for MBC: NCTC 10418, 18 h; for MIC: NCTC 10418, 24 h
Protocol: as §1

[4] = test system: Methicillin-resistant Staphylococcus aureus (MRSA, ATCC 12493); format: cell-based; settings: for MBC: ATCC 12493, 18 h; for MIC: ATCC 12493, 24 h
Protocol: as §1

[5] = test system: Pseudomonas aeruginosa (ATCC 27853); format: cell-based; settings: for MBC: ATCC 27853, 18 h; for MIC: ATCC 27853, 24 h
Protocol: as §1

[6] = test system: Enterococcus faecalis (NCTC 12697); format: cell-based; settings: for MBC: NCTC 12697, 18 h; for MIC: NCTC 12697, 24 h
Protocol: as §1

[7] = test system: MRSA (ATCC 12493) biofilm; format: cell-based, Staphylococcus aureus; settings: for MBIC50 / MBIC90: ATCC 12493, 24 h
Protocol: (§2) The anti-biofilm effects of all synthetic peptides were evaluated, which was described in our previous study. The organisms, including S. aureus (NCTC 10788), E. coli (NCTC 10418), MRSA (ATCC 12493), E. faecalis (NCTC 12697) and P. aeruginosa (ATCC 27853), were investigated in this study. Gram-positive bacteria were cultured in the TSB broth and Gram-negative bacteria were cultured in the LB broth. The anti-biofilm effects were determined based on the MBIC and MBEC of all the peptides. For the determination of MBIC, 5 × 10^5 CFU/mL bacterial cultures were incubated with the peptides concentrations (ranging from 1 µM to 512 µM) for 24 h. The sterilised medium and bacterial suspension without any treatment were used as the negative controls and positive controls, respectively. After incubation, wells were rinsed, fixed, stained, washed and dissolved with phosphate buffer saline (PBS), methanol (90%, v/v), crystal violet (0.1%, w/v), sterile deionised water and acetic acid (30%, v/v), respectively. The absorbance of dissolved stain was measured at a 595 nm using a Synergy HT plate reader (Biotech, Minneapolis, MN, USA).
(§3) For the MBEC assay, the peptide concentrations were prepared as above. The bacteria were cultured in the 96 well plate for 24–48 h, which allowed the formation of mature biofilm in the plate. Then, the bacterial culture was removed from the plate. The biofilm was further washed to remove the planktonic bacteria using PBS. Then, the fresh broth that contained different peptide concentrations was added in the plate for incubation of 24 h at 37 °C. After incubation, the plate was stained by crystal violet as mentioned above. The definition of MBIC can be given when compared to the negative control group (≥90%, MBIC90; ≥50%, MBIC50). The definition of the MBEC can be given when compared to the negative control group (≥90%, MBEC90; ≥50%, MBEC50).

[8] = test system: S. aureus (NCTC 10788) biofilm; format: cell-based, Staphylococcus aureus; settings: for MBIC50 / MBIC90: NCTC 10788, 24 h
Protocol: as §2, §3

C. albicans = format: cell-based, Candida albicans; settings: 24 h
Protocol: (§4) The minimal inhibitory concentrations (MICs) and minimum bactericidal concentrations (MBCs) were evaluated to determine the antimicrobial activity of synthetic peptides. The microorganisms employed in the study are two kinds of Gram-negative bacteria, Escherichia coli (NCTC 10418) and Pseudomonas aeruginosa (ATCC 27853), three kinds of Gram-positive bacteria, Staphylococcus aureus (NCTC 10788), Methicillin-resistant Staphylococcus aureus (MRSA, ATCC 12493) and Enterococcus faecalis (NCTC 12697) and a yeast, Candida albicans (NCPF 1467), as indicated previously. For antimicrobial assays, 5 × 10^5 CFU/mL of bacterial suspensions were incubated with the concentrations of the peptides (ranging from 1 µM to 512 µM) for 24 h at 37 °C. The sterilised broth medium was used as the positive control and the microorganism cultured in the medium only was treated as the negative control. […] The MBC results were defined as the lowest bactericidal concentrations of peptide. The antimicrobial activity of peptides was tested by monitoring the absorbance at 550 nm using an ELISA plate reader (Biolise BioTek EL808, Winooski, VT, USA).
(§5) The activity of peptides in the different environmental conditions including different concentrations of NaCl (50, 100 and 150 mM) and MgCl2 (0.5, 1 and 2 mM), pH (6, 7 and 8), temperature (50 °C, 75 °C and 100 °C) and 10% fetal bovine serum (FBS) solution, was evaluated using the broth microdilution assay as described in the antimicrobial activity assay. For the stability test of peptides in the presence of salt, pH and serum, these conditions were adjusted in the fresh medium that was further used to dilute the bacteria suspension. The peptides were also dissolved in such broth and mixed with the bacteria suspension in the 96 well plate. For the thermal stability test, the peptides were dissolved in the water and incubated at different temperature for 15 min before dosing in the plate. The sterilised broth with corresponding conditions was used as the positive controls, and the bacteria suspension without any treatment was used as the negative controls.

E. faecalis = format: cell-based, Enterococcus faecalis; settings: 24 h
Protocol: as §4, §5

SMILES | MBC [1] [µM] | MIC [1] [µM] | MBC [2] [µM] | MIC [2] [µM] | MBC [3] [µM] | MIC [3] [µM] | MBC [4] [µM] | MIC [4] [µM] | MBC [5] [µM] | MIC [5] [µM] | MBC [6] [µM] | MIC [6] [µM] | MBEC50 [7] | MBEC90 [7] [µM] | MBIC50 [7] | MBIC90 [7] [µM] | MBEC50 [8] [µM] | MBEC90 [8] [µM] | MBIC50 [8] [µM] | MBIC90 [8] [µM] | other results
CC(C)C[C@H](NC(=O)[C@H](C)NC(=O)[C@H](Cc1c[nH]c2ccccc12)NC(=O)[C@H](CCCCN)NC(=O)[C@H](CC(C)C)NC(=O)[C@@H](N)Cc1ccccc1)C(=O)N[C@@H](CCCCN)C(=O)N[C@@H](Cc1c[nH]c2ccccc12)C(=O)N[C@@H](C)C(=O)N[C@@H](C)C(=O)N[C@@H](CCCCN)C(N)=O [OSe] (H-FLKWALKWAAK-NH2) | 4 (≈ 5.44 µg/mL) | 4 (≈ 5.44 µg/mL) | 4 (≈ 5.44 µg/mL) | 4 (≈ 5.44 µg/mL) | 16 (≈ 21.8 µg/mL) | 16 (≈ 21.8 µg/mL) | 8 (≈ 10.9 µg/mL) | 8 (≈ 10.9 µg/mL) | 16 (≈ 21.8 µg/mL) | 16 (≈ 21.8 µg/mL) | 16 (≈ 21.8 µg/mL) | 16 (≈ 21.8 µg/mL) | 32 µM | 32 | 8 µM | 16 | 32 | 32 | 4 | 8 | MIC (C. albicans; pH 6): 16 µM (≈ 21.8 µg/mL); MIC (C. albicans; pH 7): 8 µM (≈ 10.9 µg/mL); MIC (C. albicans; pH 8): 4 µM (≈ 5.44 µg/mL); MIC (E. faecalis; pH 6): 32 µM (≈ 43.5 µg/mL); MIC (E. faecalis; pH 7): 64 µM (≈ 87.1 µg/mL); MIC (E. faecalis; pH 8): 32 µM (≈ 43.5 µg/mL)
CC(C)C[C@H](NC(=O)[C@H](C)NC(=O)[C@H](Cc1c[nH]c2ccccc12)NC(=O)[C@H](CCCCN)NC(=O)[C@H](CC(C)C)NC(=O)[C@@H](N)Cc1ccccc1)C(=O)N[C@@H](CCCCN)C(=O)N[C@H](C(=O)N[C@@H](C)C(=O)N[C@@H](C)C(=O)N[C@@H](CCCCN)C(N)=O)C(C)C [OSd] (H-FLKWALKVAAK-NH2) | 32 (≈ 40.8 µg/mL) | 16 (≈ 20.4 µg/mL) | 32 (≈ 40.8 µg/mL) | 16 (≈ 20.4 µg/mL) | 32 (≈ 40.8 µg/mL) | 32 (≈ 40.8 µg/mL) | 32 (≈ 40.8 µg/mL) | 32 (≈ 40.8 µg/mL) | 64 (≈ 81.5 µg/mL) | 64 (≈ 81.5 µg/mL) | 64 (≈ 81.5 µg/mL) | 32 (≈ 40.8 µg/mL) | 32/32 µM | 256 | 32/32 µM | 64 | 32 | 128 | 8 | 32 | MIC (C. albicans; pH 6): 64 µM (≈ 81.5 µg/mL); MIC (C. albicans; pH 7): 32 µM (≈ 40.8 µg/mL); MIC (C. albicans; pH 8): 32 µM (≈ 40.8 µg/mL); MIC (E. faecalis; pH 6): 256 µM (≈ 326 µg/mL); MIC (E. faecalis; pH 7): 128 µM (≈ 163 µg/mL); MIC (E. faecalis; pH 8): 128 µM (≈ 163 µg/mL)
CC(C)C[C@H](NC(=O)[C@H](C)NC(=O)[C@H](Cc1c[nH]c2ccccc12)NC(=O)[C@H](CCCCN)NC(=O)[C@@H]1CCCN1C(=O)[C@H](CC(C)C)NC(=O)[C@@H](N)Cc1ccccc1)C(=O)N[C@@H](CCCCN)C(=O)N[C@@H](Cc1c[nH]c2ccccc12)C(=O)N[C@@H](C)C(=O)N[C@@H](C)C(=O)N[C@@H](CCCCN)C(N)=O [OSf] (H-FLPKWALKWAAK-NH2; N-terminus assumed) | 16 (≈ 23.3 µg/mL) | 8 (≈ 11.7 µg/mL) | 16 (≈ 23.3 µg/mL) | 8 (≈ 11.7 µg/mL) | 16 (≈ 23.3 µg/mL) | 8 (≈ 11.7 µg/mL) | 64 (≈ 93.3 µg/mL) | 16 (≈ 23.3 µg/mL) | 64 (≈ 93.3 µg/mL) | 64 (≈ 93.3 µg/mL) | 64 (≈ 93.3 µg/mL) | 32 (≈ 46.7 µg/mL) | 32 µM | 128 | 16 µM | 64 | 32 | 128 | 8 | 32 | MIC (C. albicans; pH 6): 128 µM (≈ 187 µg/mL); MIC (C. albicans; pH 7): 8 µM (≈ 11.7 µg/mL); MIC (C. albicans; pH 8): 16 µM (≈ 23.3 µg/mL); MIC (E. faecalis; pH 6): 512 µM (≈ 746 µg/mL); MIC (E. faecalis; pH 7): 32 µM (≈ 46.7 µg/mL); MIC (E. faecalis; pH 8): 128 µM (≈ 187 µg/mL)
